# Test results published in US12054509B2, “Antimicrobial compounds, compositions, and uses thereof” (Lakewood Amedex, Inc., priority 2017, dated 2024).
# Columns and labels:
# [1] = tested on: E. coli; experiment: MIC in lysogeny broth (LB) at pH 4; assay type: cell-based; conditions: Escherichia coli
# Method: (§1) The MICs are also determined using lysogeny broth (LB) at pH 4 as the growth medium. Under these conditions, Nu-8 is active against E. coli and P. aeruginosa with MICs of 54 and 27 mg/mL, respectively.
# [2] = tested on: P. aeruginosa; experiment: MIC in lysogeny broth (LB) at pH 4; assay type: cell-based; conditions: Pseudomonas aeruginosa
# Method: as §1
# [3] = tested on: P. aeruginosa; experiment: MIC broth microdilution (CLSI) at incremental pH, P. aeruginosa; assay type: cell-based; conditions: Pseudomonas aeruginosa
# Method: MIC testing is conducted using the broth (Mueller Hinton Broth) microdilution procedures relevant to each organism group as established by the Clinical and Laboratory Standards Institute (CLSI; 3-7). MIC plates are prepared in accordance with CLSI (3-7). To prepare the test plates, automated liquid handlers are used to conduct serial dilutions and liquid transfers. Automated liquid handlers utilized in this study include the Multidrop 384 (Labsystems, Helsinki, Finland) and the Biomek 2000 (Beckman Coulter, Fullerton CA). The solution is diluted to desired pH using 1 M Citric Acid or 1 M NaOH buffer. A standardized inoculum of each test organism is prepared per CLSI methods (3, 5-7) to equal a 0.5 McFarland standard in the appropriate media followed by an additional 1:20 dilution (1:10 for anaerobes).
# The plates are then inoculated with 10 μL of the diluted 0.5 McFarland suspension using the Biomek 2000 from low to high drug concentration, resulting in a final concentration of approximately 5×10^5 CFU/mL per well. An un-inoculated plate is incubated for the purpose of assessing solubility of the drug in the test media. The plates are stacked 3 to 4 high, covered with a sterile lid on the top plate, and incubated for 18 to 24 hours according to CLSI. The MIC is recorded as the lowest concentration of respective compound that inhibited visible growth of the organism.
# [4] = tested on: Escherichia coli (strain CFT073, TPPS 1041); experiment: Urinary tract infection model in BALB/c mice, initial efficacy (Example 10); assay type: in vivo; conditions: 1025 mg/kg pH 3.5 transurethral at 24 hr
# From the text: Female BALB/c mice (20-22 g) ordered from Envigo are acclimated to housing conditions and handled in accordance with Animal Use Protocol (AUP) number TP-08. Animals are fed irradiated Teklad Global 29 18 Rodent Diet and water ad libitum. Mice are housed 6/cage in static cages with irradiated ⅛″ Teklad corn cobbedding 7902 inside bioBubble® clean rooms that provide H.E.P.A filtered air into the bubble environment at 100 complete air changes per hour. The environment is controlled to a temperature range of 74°±4° F. and a humidity range of 30-70%. All procedures carried out in this experiment are conducted in compliance with the laws, regulations, and guidelines of the National Institutes of Health and with the approval of the TransPharm Preclinical Solutions Animal Care and Use Committee.
# A clinical isolate of Escherichia coli (strain CFT073, TPPS 1041) are procured from the University of Michigan.
# The organism is grown overnight at 37° C. in ambient atmosphere on trypticase soy agar plates supplemented with 5% sheep blood cells. The culture is aseptically swabbed and transferred to tubes of trypticase soy broth. The optical density is determined at 600 nm. The culture is diluted to provide an inoculum of approximately 7.5 log10 CFU per mouse in a volume of 30 μL. Instillation of the bacterial challenge constituted time 0 hour for the study. Inoculum counts are estimated before inoculation by optical density and confirmed after inoculation by dilution and back counts.
# One hour prior to bacterial challenge, water is removed from animal cages. […]
# The primary endpoint used to assess progress of the infection is mean bacterial burden per gram of urinary bladder tissue. […] Colony forming units (CFU) are enumerated and the total bacterial burden per gram of urinary bladder tissue homogenate is calculated.
# The geometric mean CFU, along with standard error of the mean (SEM), are calculated using Microsoft Excel and bar charts are prepared for the data using GraphPad Prism v. […]
# [5] = tested on: Enterococcus faecalis; experiment: MIC at pH 3.5 (CLSI, Mueller-Hinton broth); assay type: cell-based; conditions: 5 isolates
# Method: (§2) Bacterial strains evaluated in this study include Escherichia coli, Klebsiella spp, Serratia marcescens, Proteus mirabilis/vulgaris, Citrobacter spp, Providencia spp, Morganella morganii, Pseudomonas aeruginosa, Staphylococcus aureus (MRSA only), and Enterococcus faecalis. Nu-8 test solutions are adjusted to pH 3.5 with citric acid, and MIC is evaluated per the CLSI methods in Mueller-Hinton broth supplemented accordingly to facilitate growth of specific strains.
# [6] = tested on: Serratia marcescens; experiment: MIC at pH 3.5 (CLSI, Mueller-Hinton broth); assay type: cell-based; conditions: 5 isolates
# Method: as §2
# [7] = tested on: Pseudomonas aeruginosa; experiment: MIC at pH 3.5 (CLSI, Mueller-Hinton broth); assay type: cell-based; conditions: 20 isolates
# Method: as §2
# [8] = tested on: Klebsiella pneumoniae; experiment: MIC at pH 3.5 (CLSI, Mueller-Hinton broth); assay type: cell-based; conditions: 5 isolates
# Method: as §2
# [9] = tested on: Staphylococcus aureus (MRSA); experiment: MIC at pH 3.5 (CLSI, Mueller-Hinton broth); assay type: cell-based; conditions: 20 isolates
# Method: as §2
# [10] = tested on: Morganella morganii; experiment: MIC at pH 3.5 (CLSI, Mueller-Hinton broth); assay type: cell-based; conditions: 5 isolates
# Method: as §2
# [11] = tested on: Providencia species; experiment: MIC at pH 3.5 (CLSI, Mueller-Hinton broth); assay type: cell-based; conditions: 5 isolates
# Method: as §2
# [12] = tested on: Citrobacter species; experiment: MIC at pH 3.5 (CLSI, Mueller-Hinton broth); assay type: cell-based; conditions: 5 isolates
# Method: as §2
# [13] = tested on: Proteus mirabilis/vulgaris; experiment: MIC at pH 3.5 (CLSI, Mueller-Hinton broth); assay type: cell-based; conditions: 5 isolates
# Method: as §2
# [14] = tested on: Escherichia coli; experiment: MIC at pH 3.5 (CLSI, Mueller-Hinton broth); assay type: cell-based; conditions: 5 isolates
# Method: as §2
smiles,measurement,setting,value
"CCCCOP(=O)(O)OC[C@H]1O[C@@H](n2ccc(N)nc2=O)C[C@@H]1OP(=O)(O)OCCCC [Nu-8, sodium ((2R,3S,5R)-5-(4-amino-2-oxopyrimidin-1(2H)-yl)-3-((butoxyoxidophosphor-yl)oxy)tetrahydrofuran-2-yl)methyl butyl phosphate]",MIC,[1],54 mg/mL
same,MIC,[2],27 mg/mL
same,MIC,[3]; pH 1,9.38 mg/mL
same,MIC,[3]; pH 3,18.8 mg/mL
same,MIC,[3]; pH 4,37.5 mg/mL
same,MIC,[3]; pH 5,75 mg/mL
same,MIC,[3]; pH 7,> 75 mg/mL
same,mean bladder CFU burden,[4]; 20 minutes post-treatment,2.9 log10 CFU
same,mean bladder CFU burden,[4]; 60 minutes post-treatment,3.7 log10 CFU
same,MIC,[5],4.69 to 18.8 mg/mL
same,MIC,[6],37.5 to 75 mg/mL
same,MIC,[7],9.38 to 18.8 mg/mL
same,MIC50,[7],18.8 mg/mL
same,MIC90,[7],18.8 mg/mL
same,MIC,[8],37.5 to 75 mg/mL
same,MIC,[9],9.38 to 37.5 mg/mL
same,MIC50,[9],18.8 mg/mL
same,MIC90,[9],37.5 mg/mL
same,MIC,[10],18.8 mg/mL
same,MIC,[11],9.38 to 37.5 mg/mL
same,MIC,[12],18.8 to 37.5 mg/mL
same,MIC,[13],4.69 to 18.8 mg/mL
same,MIC,[14],37.5 mg/mL
